PMC5656653, “Evaluation of Ga-DOTA-(D-Asp)n as bone imaging agents: D-aspartic acid peptides as carriers to bone” (Scientific Reports, 2017)
Entries after “also recorded” stand apart in the source; their conditions may differ. Blank lines part the entries; values can stand above or below the molecule they belong to. Where a SMILES comes first, the peptide text is derived from it. [ ]: non-standard residue; d: D form. The star is where a group is joined. DOTA = O=C(O)CN1CCN(CC(=O)O)CCN(CC(=O)*)CCN(CC(=O)O)CC1

Assay: Biodistribution experiments in normal mice after i.v. injection
Format: in vivo
Conditions: for Biodistribution of radioactivity, Blood / Biodistribution of radioactivity, Bone (Femur) / Biodistribution of radioactivity, Brain / Biodistribution of radioactivity, Heart / Biodistribution of radioactivity, Kidney / Biodistribution of radioactivity, Large-intestine / Biodistribution of radioactivity, Liver / Biodistribution of radioactivity, Lung / Biodistribution of radioactivity, Muscle / Biodistribution of radioactivity, Pancreas / Biodistribution of radioactivity, Small-intestine / Biodistribution of radioactivity, Spleen / F/B ratio (Femur:blood ratio) / Biodistribution of radioactivity, Stomach: mice, mean (SD); for Biodistribution of radioactivity, Stomach: footnote b; for tissue uptake dose at 10 min / tissue uptake dose at 1 h / tissue uptake dose at 3 h: male, ddY, total radioactivity, Biodistribution of radioactivity
Description: Experiments with animals were conducted in strict accordance with the Guidelines for the Care and Use of Laboratory Animals of Kanazawa University. The animal experimental protocols used were approved by the Committee on Animal Experimentation of Kanazawa University (Permit Number: AP-132633). Biodistribution experiments were performed after intravenous administration of each diluted tracer solution (37–740 kBq/100 μL) to 6-week-old male ddY mice (27–32 g, Japan SLC, Inc., Hamamatsu, Japan). Four or five mice at each time point after the administration of each compound were sacrificed by decapitation at 10, 60, and 180 min post-injection. Tissues of interest were taken and weighed. Complete left femurs were isolated as representative bone samples, radioactivity was determined using gamma counters (AccuFLEX γ ARC-8001 in the case of ^18F, Hitachi, Ltd.), and background counts and physical decay were corrected during counting.

[1] = mouse, in vivo, iv, Bone (Femur)
[2] = mouse, in vivo, iv, Large-intestine
[3] = mouse, in vivo, iv, Small-intestine

SMILES: [18F-].[Na+] [[^18F]NaF, reference compound]
- Biodistribution of radioactivity, Blood (i.v., 10 min after injection): 1.78 (0.23) % injected dose
- Biodistribution of radioactivity, Bone (Femur) (i.v., 10 min after injection): 27.69 (3.15) % injected dose
- Biodistribution of radioactivity, Brain (i.v., 10 min after injection): 0.10 (0.02) % injected dose
- Biodistribution of radioactivity, Heart (i.v., 10 min after injection): 1.84 (0.41) % injected dose
- Biodistribution of radioactivity, Kidney (i.v., 10 min after injection): 5.23 (2.31) % injected dose
- Biodistribution of radioactivity, Large-intestine (i.v., 10 min after injection): 0.95 (0.22) % injected dose
- Biodistribution of radioactivity, Liver (i.v., 10 min after injection): 1.34 (0.17) % injected dose
- Biodistribution of radioactivity, Lung (i.v., 10 min after injection): 1.44 (0.19) % injected dose
- Biodistribution of radioactivity, Muscle (i.v., 10 min after injection): 0.83 (0.13) % injected dose
- Biodistribution of radioactivity, Pancreas (i.v., 10 min after injection): 0.87 (0.15) % injected dose
- Biodistribution of radioactivity, Small-intestine (i.v., 10 min after injection): 1.31 (0.22) % injected dose
- Biodistribution of radioactivity, Spleen (i.v., 10 min after injection): 1.10 (0.15) % injected dose
- F/B ratio (Femur:blood ratio) (i.v., 10 min after injection): 15.59 (1.01)
- Biodistribution of radioactivity, Stomach (i.v., 10 min after injection): 0.36 (0.04) % injected dose
- Biodistribution of radioactivity, Blood (i.v., 60 min after injection): 0.11 (0.04) % injected dose
- Biodistribution of radioactivity, Bone (Femur) (i.v., 60 min after injection): 39.96 (2.52) % injected dose
- Biodistribution of radioactivity, Brain (i.v., 60 min after injection): 0.36 (0.52) % injected dose
- Biodistribution of radioactivity, Heart (i.v., 60 min after injection): 0.15 (0.05) % injected dose
- Biodistribution of radioactivity, Kidney (i.v., 60 min after injection): 1.13 (0.89) % injected dose
- Biodistribution of radioactivity, Large-intestine (i.v., 60 min after injection): 1.21 (0.27) % injected dose
- Biodistribution of radioactivity, Liver (i.v., 60 min after injection): 0.09 (0.02) % injected dose
- Biodistribution of radioactivity, Lung (i.v., 60 min after injection): 0.10 (0.03) % injected dose
- Biodistribution of radioactivity, Muscle (i.v., 60 min after injection): 0.07 (0.04) % injected dose
- Biodistribution of radioactivity, Pancreas (i.v., 60 min after injection): 0.08 (0.08) % injected dose
- Biodistribution of radioactivity, Small-intestine (i.v., 60 min after injection): 0.68 (0.10) % injected dose
- Biodistribution of radioactivity, Spleen (i.v., 60 min after injection): 0.08 (0.02) % injected dose
- F/B ratio (Femur:blood ratio) (i.v., 60 min after injection): 381.63 (84.17)
- Biodistribution of radioactivity, Stomach (i.v., 60 min after injection): 0.06 (0.02) % injected dose
- Biodistribution of radioactivity, Blood (i.v., 180 min after injection): 0.02 (0.00) % injected dose
- Biodistribution of radioactivity, Bone (Femur) (i.v., 180 min after injection): 43.91 (2.64) % injected dose
- Biodistribution of radioactivity, Brain (i.v., 180 min after injection): 0.05 (0.02) % injected dose
- Biodistribution of radioactivity, Heart (i.v., 180 min after injection): 0.02 (0.01) % injected dose
- Biodistribution of radioactivity, Kidney (i.v., 180 min after injection): 0.15 (0.08) % injected dose
- Biodistribution of radioactivity, Large-intestine (i.v., 180 min after injection): 1.39 (0.19) % injected dose
- Biodistribution of radioactivity, Liver (i.v., 180 min after injection): 0.02 (0.00) % injected dose
- Biodistribution of radioactivity, Lung (i.v., 180 min after injection): 0.03 (0.01) % injected dose
- Biodistribution of radioactivity, Muscle (i.v., 180 min after injection): 0.01 (0.01) % injected dose
- Biodistribution of radioactivity, Pancreas (i.v., 180 min after injection): 0.02 (0.03) % injected dose
- Biodistribution of radioactivity, Small-intestine (i.v., 180 min after injection): 0.06 (0.02) % injected dose
- Biodistribution of radioactivity, Spleen (i.v., 180 min after injection): 0.02 (0.00) % injected dose
- F/B ratio (Femur:blood ratio) (i.v., 180 min after injection): 1983.88 (256.88)
- Biodistribution of radioactivity, Stomach (i.v., 180 min after injection): 0.13 (0.14) % injected dose
- Accumulation of radioactivity in bone (in words) (normal mice, i.v.): high accumulation and retention of radioactivity in bone; also recorded: highest bone uptake

- tissue uptake dose at 10 min (mouse, in vivo, iv, Blood): 2.19 %ID
- tissue uptake dose at 1 h (mouse, in vivo, iv, Blood): 0.24 %ID
- tissue uptake dose at 3 h (mouse, in vivo, iv, Blood): 0.05 %ID
- tissue uptake dose at 10 min [1]: 1.57 %ID
- tissue uptake dose at 1 h [1]: 0.88 %ID
- tissue uptake dose at 3 h [1]: 0.49 %ID
- tissue uptake dose at 10 min (mouse, in vivo, iv, Brain): 0.07 %ID
- tissue uptake dose at 1 h (mouse, in vivo, iv, Brain): 0.02 %ID
- tissue uptake dose at 3 h (mouse, in vivo, iv, Brain): 0.01 %ID
- tissue uptake dose at 10 min (mouse, in vivo, iv, Heart): 0.86 %ID
- tissue uptake dose at 1 h (mouse, in vivo, iv, Heart): 0.11 %ID
- tissue uptake dose at 3 h (mouse, in vivo, iv, Heart): 0.06 %ID
- tissue uptake dose at 10 min (mouse, in vivo, iv, Kidney): 7.61 %ID
- tissue uptake dose at 1 h (mouse, in vivo, iv, Kidney): 6.33 %ID
- tissue uptake dose at 3 h (mouse, in vivo, iv, Kidney): 1.42 %ID
- tissue uptake dose at 10 min [2]: 0.37 %ID
- tissue uptake dose at 1 h [2]: 0.12 %ID
- tissue uptake dose at 3 h [2]: 0.38 %ID
- tissue uptake dose at 10 min (mouse, in vivo, iv, Liver): 0.57 %ID
- tissue uptake dose at 1 h (mouse, in vivo, iv, Liver): 0.31 %ID
- tissue uptake dose at 3 h (mouse, in vivo, iv, Liver): 0.11 %ID
- tissue uptake dose at 10 min (mouse, in vivo, iv, Lung): 1.45 %ID
- tissue uptake dose at 1 h (mouse, in vivo, iv, Lung): 0.26 %ID
- tissue uptake dose at 3 h (mouse, in vivo, iv, Lung): 0.08 %ID
- tissue uptake dose at 10 min (mouse, in vivo, iv, Muscle): 0.53 %ID
- tissue uptake dose at 1 h (mouse, in vivo, iv, Muscle): 0.11 %ID
- tissue uptake dose at 3 h (mouse, in vivo, iv, Muscle): 0.08 %ID
- tissue uptake dose at 10 min (mouse, in vivo, iv, Pancreas): 0.57 %ID
- tissue uptake dose at 1 h (mouse, in vivo, iv, Pancreas): 0.15 %ID
- tissue uptake dose at 3 h (mouse, in vivo, iv, Pancreas): 0.09 %ID
- tissue uptake dose at 10 min [3]: 0.5 %ID
- tissue uptake dose at 1 h [3]: 0.14 %ID
- tissue uptake dose at 3 h [3]: 0.08 %ID
- tissue uptake dose at 10 min (mouse, in vivo, iv, Spleen): 0.5 %ID
- tissue uptake dose at 1 h (mouse, in vivo, iv, Spleen): 0.24 %ID
- tissue uptake dose at 3 h (mouse, in vivo, iv, Spleen): 0.08 %ID
- tissue uptake dose at 10 min (mouse, in vivo, iv, Stomach): 0.24 %ID
- tissue uptake dose at 1 h (mouse, in vivo, iv, Stomach): 0.06 %ID
- tissue uptake dose at 3 h (mouse, in vivo, iv, Stomach): 0.36 %ID
SMILES: O=C(O)C[C@@H](NC(=O)[C@@H](CC(=O)O)NC(=O)CN1CCN(CC(=O)O)CCN(CC(=O)O)CCN(CC(=O)O)CC1)C(=O)O [^67Ga-DOTA-(D-Asp)2, metal not drawn] ({DOTA}-[dD]-[dD]-OH)
- Accumulation of radioactivity in bone (in words) (mouse, in vivo, iv): subtle accumulation of radioactivity in bone

- tissue uptake dose at 1 h (mouse, in vivo, iv, Blood): 0.27 %ID
- tissue uptake dose at 3 h (mouse, in vivo, iv, Blood): 0.13 %ID
- tissue uptake dose at 10 min [1]: 6.78 %ID
- tissue uptake dose at 1 h [1]: 5.01 %ID
- tissue uptake dose at 3 h [1]: 2.8 %ID
- tissue uptake dose at 10 min (mouse, in vivo, iv, Brain): 0.1 %ID
- tissue uptake dose at 1 h (mouse, in vivo, iv, Brain): 0.02 %ID
- tissue uptake dose at 3 h (mouse, in vivo, iv, Brain): 0.01 %ID
- tissue uptake dose at 10 min (mouse, in vivo, iv, Heart): 1.03 %ID
- tissue uptake dose at 1 h (mouse, in vivo, iv, Heart): 0.12 %ID
- tissue uptake dose at 3 h (mouse, in vivo, iv, Heart): 0.06 %ID
- tissue uptake dose at 10 min (mouse, in vivo, iv, Kidney): 12 %ID
- tissue uptake dose at 1 h (mouse, in vivo, iv, Kidney): 6.31 %ID
- tissue uptake dose at 3 h (mouse, in vivo, iv, Kidney): 1.45 %ID
- tissue uptake dose at 10 min [2]: 0.47 %ID
- tissue uptake dose at 1 h [2]: 0.22 %ID
- tissue uptake dose at 3 h [2]: 0.22 %ID
- tissue uptake dose at 10 min (mouse, in vivo, iv, Liver): 0.67 %ID
- tissue uptake dose at 1 h (mouse, in vivo, iv, Liver): 0.22 %ID
- tissue uptake dose at 3 h (mouse, in vivo, iv, Liver): 0.14 %ID
- tissue uptake dose at 10 min (mouse, in vivo, iv, Lung): 2.03 %ID
- tissue uptake dose at 1 h (mouse, in vivo, iv, Lung): 0.3 %ID
- tissue uptake dose at 3 h (mouse, in vivo, iv, Lung): 0.09 %ID
- tissue uptake dose at 10 min (mouse, in vivo, iv, Muscle): 0.68 %ID
- tissue uptake dose at 1 h (mouse, in vivo, iv, Muscle): 0.13 %ID
- tissue uptake dose at 3 h (mouse, in vivo, iv, Muscle): 0.07 %ID
- tissue uptake dose at 10 min (mouse, in vivo, iv, Pancreas): 0.72 %ID
- tissue uptake dose at 1 h (mouse, in vivo, iv, Pancreas): 0.25 %ID
- tissue uptake dose at 3 h (mouse, in vivo, iv, Pancreas): 0.06 %ID
- tissue uptake dose at 10 min [3]: 0.55 %ID
- tissue uptake dose at 1 h [3]: 0.23 %ID
- tissue uptake dose at 3 h [3]: 0.18 %ID
- tissue uptake dose at 10 min (mouse, in vivo, iv, Spleen): 0.56 %ID
- tissue uptake dose at 1 h (mouse, in vivo, iv, Spleen): 0.16 %ID
- tissue uptake dose at 3 h (mouse, in vivo, iv, Spleen): 0.11 %ID
- tissue uptake dose at 10 min (mouse, in vivo, iv, Stomach): 0.32 %ID
- tissue uptake dose at 1 h (mouse, in vivo, iv, Stomach): 0.1 %ID
- tissue uptake dose at 3 h (mouse, in vivo, iv, Stomach): 0.48 %ID
SMILES: O=C(O)C[C@@H](NC(=O)[C@@H](CC(=O)O)NC(=O)[C@@H](CC(=O)O)NC(=O)[C@@H](CC(=O)O)NC(=O)[C@@H](CC(=O)O)NC(=O)CN1CCN(CC(=O)O)CCN(CC(=O)O)CCN(CC(=O)O)CC1)C(=O)O [^67Ga-DOTA-(D-Asp)5, metal not drawn] ({DOTA}-[dD][dD][dD][dD][dD]-OH)
- Accumulation of radioactivity in bone (in words) (mouse, in vivo, iv): moderate accumulation of radioactivity in bone
